Key:
[1] = target: cGMP-dependent protein kinase 2 (Homo sapiens) (UniProt Q13237); conditions: Compound concentration 1000.0 nM
[2] = target: Serine/threonine-protein kinase ICK (Homo sapiens) (UniProt Q9UPZ9); conditions: Compound concentration 1000.0 nM
[3] = target: Tyrosine-protein kinase receptor UFO (Homo sapiens) (UniProt P30530); conditions: Compound concentration 1000.0 nM
[4] = target: Cyclin-dependent kinase 8 (Homo sapiens) (UniProt P49336); conditions: Compound concentration 1000.0 nM
[5] = target: Serine/threonine-protein kinase PLK2 (Homo sapiens) (UniProt Q9NYY3); conditions: Compound concentration 1000.0 nM
[6] = target: Ephrin type-B receptor 6 (Homo sapiens) (UniProt O15197); conditions: Compound concentration 1000.0 nM
[7] = target: LIM domain kinase 1 (Homo sapiens) (UniProt P53667); conditions: Compound concentration 1000.0 nM
LIM domain kinase 1 (Homo sapiens), sequence (P53667 whole entry, looked up, the tested form may be a part): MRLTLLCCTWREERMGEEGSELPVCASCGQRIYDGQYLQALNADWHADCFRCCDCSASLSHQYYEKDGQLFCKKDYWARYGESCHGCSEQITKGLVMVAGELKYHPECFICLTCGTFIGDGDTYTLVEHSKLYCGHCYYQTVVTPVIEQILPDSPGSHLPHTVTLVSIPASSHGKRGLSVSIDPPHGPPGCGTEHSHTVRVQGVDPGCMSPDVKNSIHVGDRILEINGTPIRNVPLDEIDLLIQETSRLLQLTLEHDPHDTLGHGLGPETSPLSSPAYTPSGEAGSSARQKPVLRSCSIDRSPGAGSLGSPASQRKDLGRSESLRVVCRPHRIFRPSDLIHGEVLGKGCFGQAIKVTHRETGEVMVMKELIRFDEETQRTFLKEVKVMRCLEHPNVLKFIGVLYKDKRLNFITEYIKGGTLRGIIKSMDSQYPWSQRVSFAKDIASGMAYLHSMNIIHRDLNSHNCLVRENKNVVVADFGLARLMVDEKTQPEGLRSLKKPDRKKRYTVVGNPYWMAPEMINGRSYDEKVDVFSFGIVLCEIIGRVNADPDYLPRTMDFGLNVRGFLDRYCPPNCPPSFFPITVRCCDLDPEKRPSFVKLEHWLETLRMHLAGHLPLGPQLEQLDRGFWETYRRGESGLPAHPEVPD

[8] = target: Mitogen-activated protein kinase kinase kinase 1 (Homo sapiens) (UniProt Q13233); conditions: Compound concentration 1000.0 nM
[9] = target: Histamine H1 receptor (Homo sapiens) (UniProt P35367); conditions: Compound concentration 10.0 uM
[10] = target: NT-3 growth factor receptor (Homo sapiens) (UniProt Q16288); conditions: Compound concentration 1000.0 nM
NT-3 growth factor receptor (Homo sapiens), sequence (Q16288 32-839 limits assumed): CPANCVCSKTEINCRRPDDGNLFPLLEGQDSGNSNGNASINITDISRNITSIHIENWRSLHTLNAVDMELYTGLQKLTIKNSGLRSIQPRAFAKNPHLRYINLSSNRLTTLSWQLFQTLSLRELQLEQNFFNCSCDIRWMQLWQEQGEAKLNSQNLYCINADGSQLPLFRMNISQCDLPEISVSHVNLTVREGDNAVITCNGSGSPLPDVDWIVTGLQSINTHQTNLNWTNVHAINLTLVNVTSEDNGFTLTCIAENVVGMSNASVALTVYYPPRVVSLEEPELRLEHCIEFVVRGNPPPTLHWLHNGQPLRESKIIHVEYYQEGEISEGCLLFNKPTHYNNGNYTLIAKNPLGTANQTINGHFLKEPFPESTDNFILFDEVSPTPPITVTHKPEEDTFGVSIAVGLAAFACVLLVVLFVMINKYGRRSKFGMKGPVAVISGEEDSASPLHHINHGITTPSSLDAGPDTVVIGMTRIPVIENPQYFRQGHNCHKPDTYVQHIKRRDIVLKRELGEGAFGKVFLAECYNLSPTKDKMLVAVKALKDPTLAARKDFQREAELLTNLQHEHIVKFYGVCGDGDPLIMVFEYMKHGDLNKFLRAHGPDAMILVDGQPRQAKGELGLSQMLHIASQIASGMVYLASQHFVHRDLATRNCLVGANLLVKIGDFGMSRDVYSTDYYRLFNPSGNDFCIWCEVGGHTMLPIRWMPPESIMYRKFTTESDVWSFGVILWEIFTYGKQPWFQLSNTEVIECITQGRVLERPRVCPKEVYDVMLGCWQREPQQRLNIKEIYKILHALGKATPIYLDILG

[11] = target: Serine/threonine-protein kinase Sgk2 (Homo sapiens) (UniProt Q9HBY8); conditions: Compound concentration 1000.0 nM
Serine/threonine-protein kinase Sgk2 (Homo sapiens), sequence (Q9HBY8 whole entry): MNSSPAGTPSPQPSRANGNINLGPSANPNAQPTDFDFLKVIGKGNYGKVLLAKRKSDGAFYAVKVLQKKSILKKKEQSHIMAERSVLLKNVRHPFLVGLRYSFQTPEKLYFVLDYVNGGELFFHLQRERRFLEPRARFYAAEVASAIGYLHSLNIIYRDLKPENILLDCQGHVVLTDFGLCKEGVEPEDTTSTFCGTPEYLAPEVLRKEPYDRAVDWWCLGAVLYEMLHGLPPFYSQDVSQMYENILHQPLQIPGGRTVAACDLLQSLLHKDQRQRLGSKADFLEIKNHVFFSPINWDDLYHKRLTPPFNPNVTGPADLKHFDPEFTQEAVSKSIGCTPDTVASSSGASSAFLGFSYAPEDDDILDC

[12] = target: Tyrosine-protein kinase Yes (Homo sapiens) (UniProt P07947); conditions: Compound concentration 1000.0 nM
[13] = target: Calcium/calmodulin-dependent protein kinase kinase 1 (Homo sapiens) (UniProt Q8N5S9); conditions: Compound concentration 1000.0 nM
[14] = tested on: Phosphatidylinositol 4,5-bisphosphate 3-kinase catalytic subunit alpha isoform (Homo sapiens), P42336 [E545K]; conditions: Compound concentration 1000.0 nM
[15] = target: Serine/threonine-protein kinase Nek5 (Homo sapiens) (UniProt Q6P3R8); conditions: Compound concentration 1000.0 nM
Serine/threonine-protein kinase Nek5 (Homo sapiens), sequence (Q6P3R8 whole entry): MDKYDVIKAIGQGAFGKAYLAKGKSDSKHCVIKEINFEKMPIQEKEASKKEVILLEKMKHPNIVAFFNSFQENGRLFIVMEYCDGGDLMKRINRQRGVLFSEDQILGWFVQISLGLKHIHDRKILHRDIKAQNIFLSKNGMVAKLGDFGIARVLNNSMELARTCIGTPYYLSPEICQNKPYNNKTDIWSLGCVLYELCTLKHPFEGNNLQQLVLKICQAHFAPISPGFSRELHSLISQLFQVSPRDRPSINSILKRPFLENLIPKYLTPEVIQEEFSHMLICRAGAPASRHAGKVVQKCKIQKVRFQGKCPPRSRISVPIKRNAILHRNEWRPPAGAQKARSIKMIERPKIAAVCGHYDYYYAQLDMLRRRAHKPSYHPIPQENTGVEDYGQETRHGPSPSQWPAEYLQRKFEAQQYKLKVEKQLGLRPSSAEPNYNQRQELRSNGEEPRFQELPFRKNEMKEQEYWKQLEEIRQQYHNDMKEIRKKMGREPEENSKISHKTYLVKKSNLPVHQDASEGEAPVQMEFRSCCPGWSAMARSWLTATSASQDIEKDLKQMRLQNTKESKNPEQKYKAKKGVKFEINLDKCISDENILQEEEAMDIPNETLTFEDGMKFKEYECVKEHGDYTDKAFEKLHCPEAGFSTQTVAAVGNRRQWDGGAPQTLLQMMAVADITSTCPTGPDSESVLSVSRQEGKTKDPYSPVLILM

[16] = target: Serine/threonine-protein kinase WNK4 (Homo sapiens) (UniProt Q96J92); conditions: Compound concentration 1000.0 nM
[17] = target: T1, Alpha-2A adrenergic receptor (Homo sapiens) (UniProt P08913); conditions: Compound concentration 10.0 uM
T1 sequence (whole entry): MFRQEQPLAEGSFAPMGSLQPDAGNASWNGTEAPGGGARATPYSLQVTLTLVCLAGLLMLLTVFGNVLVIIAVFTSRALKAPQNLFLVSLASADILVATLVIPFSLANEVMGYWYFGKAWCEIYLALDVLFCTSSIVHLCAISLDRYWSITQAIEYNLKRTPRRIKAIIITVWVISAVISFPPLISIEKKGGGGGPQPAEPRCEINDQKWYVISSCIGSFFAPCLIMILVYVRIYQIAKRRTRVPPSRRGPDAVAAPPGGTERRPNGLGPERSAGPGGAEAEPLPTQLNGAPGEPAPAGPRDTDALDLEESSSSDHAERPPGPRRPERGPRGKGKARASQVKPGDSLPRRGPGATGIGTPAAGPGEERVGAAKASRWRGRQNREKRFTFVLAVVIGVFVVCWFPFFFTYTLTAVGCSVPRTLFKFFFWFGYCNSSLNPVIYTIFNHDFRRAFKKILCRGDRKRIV

[18] = target: Serine/threonine-protein kinase Nek3 (Homo sapiens) (UniProt P51956); conditions: Compound concentration 1000.0 nM
[19] = target: Ribosomal protein S6 kinase beta-1 (Homo sapiens) (UniProt P23443); conditions: Compound concentration 1000.0 nM
[20] = target: Mitogen-activated protein kinase 10 (Homo sapiens) (UniProt P53779); conditions: Compound concentration 1000.0 nM
Mitogen-activated protein kinase 10 (Homo sapiens), sequence (P53779 whole entry): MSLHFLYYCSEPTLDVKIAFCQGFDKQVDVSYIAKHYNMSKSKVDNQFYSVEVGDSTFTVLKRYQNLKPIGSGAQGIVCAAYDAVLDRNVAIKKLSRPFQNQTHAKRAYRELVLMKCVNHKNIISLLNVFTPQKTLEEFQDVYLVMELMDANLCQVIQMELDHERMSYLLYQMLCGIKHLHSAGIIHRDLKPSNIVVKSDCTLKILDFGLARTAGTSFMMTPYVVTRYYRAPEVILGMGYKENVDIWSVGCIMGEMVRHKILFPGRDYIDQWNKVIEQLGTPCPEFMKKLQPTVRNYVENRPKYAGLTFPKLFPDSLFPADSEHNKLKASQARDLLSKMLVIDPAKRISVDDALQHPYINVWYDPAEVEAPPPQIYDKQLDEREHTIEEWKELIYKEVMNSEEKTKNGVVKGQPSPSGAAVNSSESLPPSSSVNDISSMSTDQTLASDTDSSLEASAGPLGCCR

[21] = target: Mitogen-activated protein kinase 8 (Homo sapiens) (UniProt P45983); conditions: Compound concentration 1000.0 nM
[22] = target: cAMP-dependent protein kinase catalytic subunit PRKX (Homo sapiens) (UniProt P51817); conditions: Compound concentration 1000.0 nM
[23] = target: Serine/threonine-protein kinase 10 (Homo sapiens) (UniProt O94804); conditions: Compound concentration 1000.0 nM
[24] = target: cAMP-dependent protein kinase catalytic subunit alpha (Homo sapiens) (UniProt P17612); conditions: Compound concentration 1000.0 nM
[25] = target: BMP-2-inducible protein kinase (Homo sapiens) (UniProt Q9NSY1); conditions: Compound concentration 1000.0 nM
[26] = target: Receptor-interacting serine/threonine-protein kinase 2 (Homo sapiens) (UniProt O43353); conditions: Compound concentration 1000.0 nM
Receptor-interacting serine/threonine-protein kinase 2 (Homo sapiens), sequence (O43353 whole entry): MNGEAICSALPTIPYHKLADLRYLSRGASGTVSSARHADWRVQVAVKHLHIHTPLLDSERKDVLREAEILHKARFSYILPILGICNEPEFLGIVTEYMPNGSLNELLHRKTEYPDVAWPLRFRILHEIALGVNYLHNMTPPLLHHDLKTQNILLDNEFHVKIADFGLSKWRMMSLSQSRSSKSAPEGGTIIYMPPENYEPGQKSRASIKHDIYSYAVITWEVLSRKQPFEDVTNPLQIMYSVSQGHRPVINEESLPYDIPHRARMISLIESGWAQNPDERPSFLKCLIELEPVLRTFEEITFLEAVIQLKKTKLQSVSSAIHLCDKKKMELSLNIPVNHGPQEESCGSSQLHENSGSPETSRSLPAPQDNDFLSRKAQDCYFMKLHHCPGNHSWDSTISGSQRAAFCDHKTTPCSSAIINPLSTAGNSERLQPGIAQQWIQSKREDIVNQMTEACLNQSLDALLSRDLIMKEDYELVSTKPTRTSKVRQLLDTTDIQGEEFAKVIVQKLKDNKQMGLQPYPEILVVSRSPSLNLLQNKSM

[27] = target: Serine/threonine-protein kinase 16 (Homo sapiens) (UniProt O75716); conditions: Compound concentration 1000.0 nM
Serine/threonine-protein kinase 16 (Homo sapiens), sequence (O75716 whole entry): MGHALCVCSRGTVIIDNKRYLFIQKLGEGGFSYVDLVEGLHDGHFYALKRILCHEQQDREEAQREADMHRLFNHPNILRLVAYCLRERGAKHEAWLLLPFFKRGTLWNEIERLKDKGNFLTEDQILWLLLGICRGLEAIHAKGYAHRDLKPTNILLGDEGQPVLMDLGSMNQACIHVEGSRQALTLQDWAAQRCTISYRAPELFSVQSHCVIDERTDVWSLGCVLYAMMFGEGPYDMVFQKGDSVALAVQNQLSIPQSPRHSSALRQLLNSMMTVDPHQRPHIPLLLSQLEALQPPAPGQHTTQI

[28] = target: Serine/threonine-protein kinase 32C (Homo sapiens) (UniProt Q86UX6); conditions: Compound concentration 1000.0 nM
[29] = tested on: Tyrosine-protein kinase ABL1 (Homo sapiens), P00519 [Y253F]; conditions: Compound concentration 1000.0 nM
[30] = target: Misshapen-like kinase 1 (Homo sapiens) (UniProt Q8N4C8); conditions: Compound concentration 1000.0 nM
[31] = target: Death-associated protein kinase 2 (Homo sapiens) (UniProt Q9UIK4); conditions: Compound concentration 1000.0 nM
[32] = tested on: Phosphatidylinositol 4,5-bisphosphate 3-kinase catalytic subunit alpha isoform (Homo sapiens), P42336 [I800L]; conditions: Compound concentration 1000.0 nM
[33] = target: Activated CDC42 kinase 1 (Homo sapiens) (UniProt Q07912); conditions: Compound concentration 1000.0 nM
[34] = target: Mitogen-activated protein kinase 3 (Homo sapiens) (UniProt P27361); conditions: Compound concentration 1000.0 nM
[35] = tested on: Tyrosine-protein kinase ABL1 (Homo sapiens), P00519 [F317I]; conditions: Compound concentration 1000.0 nM
[36] = target: Homeodomain-interacting protein kinase 4 (Homo sapiens) (UniProt Q8NE63); conditions: Compound concentration 1000.0 nM
[37] = target: Inhibitor of nuclear factor kappa-B kinase subunit beta (Homo sapiens) (UniProt O14920); conditions: Compound concentration 1000.0 nM
[38] = target: Calcium/calmodulin-dependent protein kinase type 1 (Homo sapiens) (UniProt Q14012); conditions: Compound concentration 1000.0 nM
Calcium/calmodulin-dependent protein kinase type 1 (Homo sapiens), sequence (Q14012 whole entry, looked up): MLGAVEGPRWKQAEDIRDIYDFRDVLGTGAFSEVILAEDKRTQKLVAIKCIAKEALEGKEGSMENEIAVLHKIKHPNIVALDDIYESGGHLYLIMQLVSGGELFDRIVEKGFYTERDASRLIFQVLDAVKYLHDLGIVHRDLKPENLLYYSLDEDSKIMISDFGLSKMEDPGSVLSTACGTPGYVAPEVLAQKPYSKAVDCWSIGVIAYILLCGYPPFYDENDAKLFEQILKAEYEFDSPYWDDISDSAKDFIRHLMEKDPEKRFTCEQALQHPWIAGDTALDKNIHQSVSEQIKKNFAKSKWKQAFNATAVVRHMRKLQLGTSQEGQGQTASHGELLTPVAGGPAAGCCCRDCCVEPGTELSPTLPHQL

[39] = target: Tyrosine-protein kinase Blk (Homo sapiens) (UniProt P51451); conditions: Compound concentration 1000.0 nM

cGMP-dependent protein kinase 2 (Homo sapiens), sequence (Q13237 whole entry): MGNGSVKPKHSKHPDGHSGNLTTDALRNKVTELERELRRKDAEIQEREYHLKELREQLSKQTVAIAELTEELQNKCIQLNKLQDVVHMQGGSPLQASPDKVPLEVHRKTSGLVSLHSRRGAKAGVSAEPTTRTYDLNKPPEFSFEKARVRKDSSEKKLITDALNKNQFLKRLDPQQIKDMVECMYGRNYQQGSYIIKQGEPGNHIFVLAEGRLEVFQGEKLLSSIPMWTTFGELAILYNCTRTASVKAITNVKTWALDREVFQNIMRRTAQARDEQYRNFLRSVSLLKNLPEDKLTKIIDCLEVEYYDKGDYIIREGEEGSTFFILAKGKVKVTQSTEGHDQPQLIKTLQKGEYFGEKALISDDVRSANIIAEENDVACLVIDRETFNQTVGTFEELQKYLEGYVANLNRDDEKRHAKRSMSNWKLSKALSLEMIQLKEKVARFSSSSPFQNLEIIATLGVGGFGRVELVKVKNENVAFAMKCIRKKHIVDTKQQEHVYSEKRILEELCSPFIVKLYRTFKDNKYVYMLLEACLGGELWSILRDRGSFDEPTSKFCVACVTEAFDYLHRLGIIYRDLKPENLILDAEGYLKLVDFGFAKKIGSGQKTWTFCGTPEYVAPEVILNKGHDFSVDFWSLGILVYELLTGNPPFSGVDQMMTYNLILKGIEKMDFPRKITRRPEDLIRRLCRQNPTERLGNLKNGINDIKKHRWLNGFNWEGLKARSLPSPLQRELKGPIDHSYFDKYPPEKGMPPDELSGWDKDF

CS(=O)(=O)NCC[C@H](NC(=O)c1cncc2c1cnn2-c1ccc(F)cc1)c1ccnc(S(C)(=O)=O)c1 [BI 9307]
inactive: residual activity [1] 87% | residual activity [2] 100% | residual activity [3] 95% | residual activity [4] 100% | residual activity [5] 100% | residual activity [6] 100% | residual activity [7] 100% | residual activity [8] 100% | inhibition [9] 12.5% | residual activity [10] 100% | residual activity [11] 94% | residual activity [12] 100% | residual activity [13] 100% | residual activity [14] 78% | residual activity [15] 100% | residual activity [16] 100% | inhibition [17] 3.49% | residual activity [18] 86% | residual activity [19] 86% | residual activity [20] 100% | residual activity [21] 80% | residual activity [22] 100% | residual activity [23] 100% | residual activity [24] 100% | residual activity [25] 92% | residual activity [26] 100% | residual activity [27] 99% | residual activity [28] 100% | residual activity [29] 95% | residual activity [30] 100% | residual activity [31] 100% | residual activity [32] 61% | residual activity [33] 100% | residual activity [34] 97% | residual activity [35] 94% | residual activity [36] 100% | residual activity [37] 89% | residual activity [38] 94% | residual activity [39] 100%

CS(=O)(=O)c1cc(C2(NC(=O)c3cncc4c3cnn4-c3ccc(F)cc3)CC2)ccn1 [BI 639667]
inactive: residual activity [1] 89% | residual activity [2] 100% | residual activity [3] 100% | residual activity [4] 100% | residual activity [5] 70% | residual activity [6] 100% | residual activity [7] 100% | residual activity [8] 100% | inhibition [9] 11.2% | residual activity [10] 90% | residual activity [11] 67% | residual activity [12] 100% | residual activity [13] 76% | residual activity [14] 74% | residual activity [15] 100% | residual activity [16] 97% | inhibition [17] -2.44% | residual activity [18] 100% | residual activity [19] 100% | residual activity [20] 100% | residual activity [21] 95% | residual activity [22] 85% | residual activity [23] 99% | residual activity [24] 100% | residual activity [25] 89% | residual activity [26] 53% | residual activity [27] 93% | residual activity [28] 81% | residual activity [29] 91% | residual activity [30] 100% | residual activity [31] 96% | residual activity [32] 68% | residual activity [33] 100% | residual activity [34] 100% | residual activity [35] 79% | residual activity [36] 100% | residual activity [37] 100% | residual activity [38] 65% | residual activity [39] 100%
